Measured values reported in patent US7803829B2, “Use of a kinase inhibitor for the treatment of particular resistant tumors” (Nerviano Medical Sciences S.r.l., priority 2006, dated 2010).
Residue numbers refer to the chain shown, from its start. Entries after “also recorded” stand apart in the source; their conditions may differ.

Key:
[1] = biological target: T1, Wild-type ABL 0P (unphosphorylated) kinase domain (Homo sapiens, UniProt P00519); experiment: Indolinone probe titration (fluorescence), probe of 3.1; assay type: binding; conditions: Table 1; 10 nM enzyme, probe 3 μM to 0
T1 construct: ABL kinase domain (corresponding to residues 229-512); GST (N, cleaved yes); PreScission cleavage site (N, cleaved yes); made in house; host or cells: High5 insect cells (baculovirus)
T1 sequence (P00519 229-512): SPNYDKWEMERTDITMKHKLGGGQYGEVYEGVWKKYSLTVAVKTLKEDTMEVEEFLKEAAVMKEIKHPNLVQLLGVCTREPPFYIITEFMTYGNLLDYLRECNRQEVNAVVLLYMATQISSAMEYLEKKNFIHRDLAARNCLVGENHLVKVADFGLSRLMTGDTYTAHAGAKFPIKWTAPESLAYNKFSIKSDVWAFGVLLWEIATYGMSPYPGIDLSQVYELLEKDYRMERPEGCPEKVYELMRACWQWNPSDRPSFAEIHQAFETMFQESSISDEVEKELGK
Experimental: (§1) Data analysis was performed using the Dynafit software.

[2] = biological target: T2, wild-type ABL kinase domain (Homo sapiens, UniProt P00519); experiment: as above; assay type: binding; conditions: Table 1; 10 nM enzyme, probe 3 μM to 0
T2 construct: ABL kinase domain (corresponding to residues 229-512); GST (N, cleaved yes); PreScission cleavage site (N, cleaved yes); made in house; host or cells: High5 insect cells (baculovirus)
T2 sequence (P00519 229-512): T1 sequence (P00519 229-512)
Experimental: as §1

[3] = biological target: T3, T315I ABL mutant kinase domain (Homo sapiens, UniProt P00519, T315I); experiment: as above; assay type: binding; conditions: Table 1; 10 nM enzyme, probe 3 μM to 0
T3 construct: ABL kinase domain (corresponding to residues 229-512); GST (N, cleaved yes); PreScission cleavage site (N, cleaved yes); made in house; host or cells: High5 insect cells (baculovirus)
T3 sequence (P00519 229-512 T315I): T1 sequence (P00519 229-512) with T87I
Experimental: as §1

[4] = biological target: T1, Wild-type ABL 0P (unphosphorylated) kinase domain; experiment: ATP site-dependent displacement assay, indolinone probe of 3.1; assay type: binding
From the text: (§2) KD values, are the average of three independent experiments.

[5] = biological target: T2, wild-type ABL kinase domain; experiment: as above; assay type: binding
From the text: as §2

[6] = biological target: T3, T315I ABL mutant kinase domain; experiment: as above; assay type: binding
From the text: as §2

[7] = biological target: T1, Wild-type ABL 0P (unphosphorylated) kinase domain; experiment: ATP site-dependent displacement assay, indolinone probe of 3.2; assay type: binding
From the text: as §2

[8] = biological target: T2, wild-type ABL kinase domain; experiment: as above; assay type: binding
From the text: as §2

[9] = biological target: T3, T315I ABL mutant kinase domain; experiment: as above; assay type: binding
From the text: as §2

[10] = biological target: T4, T315I ABL mutant in HCT-116 transfected cells (Homo sapiens, UniProt P00519, T315I); experiment: Immunoblotting of transfected HCT-116 cells (pY412-ABL); assay type: cell-based; conditions: 5 μM, HCT-116 transfected with T315I mutant construct, FIG. 3
T4 construct: ABL cDNA (corresponding to residues 27-1130); expressed in transfected cells; host or cells: HCT-116
Experimental: (§3) Amplification was performed using the forward oligonucleotide:
Oligonucleotide used in the mutagenesis reaction was:
(§4) Immunoblotting was performed according to standard methods.

[11] = biological target: T5, wild-type ABL in HCT-116 transfected cells (Homo sapiens, UniProt P00519); experiment: as above; assay type: cell-based; conditions: 5 μM, HCT-116 transfected with wild-type construct, FIG. 3
T5 construct: ABL cDNA (corresponding to residues 27-1130); expressed in transfected cells; host or cells: HCT-116
Experimental: as §3, §4

[12] = biological target: T6, BCR-ABL in K-562 leukemia cells (Homo sapiens, UniProt P00519); experiment: Immunoblotting of K-562 leukemia cells, inhibition of BCR-ABL signaling; assay type: cell-based; conditions: K-562 cells treated for one hour
T6 construct: endogenously expressing BCR-ABL cells; endogenous in cells; host or cells: K-562; the other entry of the earlier key: BCR (P11274, Breakpoint cluster region protein)

[13] = biological target: T1, Wild-type ABL 0P (unphosphorylated) kinase domain; experiment: Indolinone probe titration (fluorescence), probe of 3.2; assay type: binding; conditions: Table 4
Experimental: (§5) The titration experiment was performed as follows: 10 nM ABL kinase domains (wild-type or T315I mutant), indolinone concentration from 3 μM to 0, with dilution steps 1:1.5 in 50 mM TrisHCl, pH 7.5, 150 mM NaCl, 5 mM MgCl2, 1 mM MnCl2, 1 mM DTT, 1% DMSO, 3 μM NaaVO4(buffer 1).

[14] = biological target: T2, wild-type ABL kinase domain; experiment: as above; assay type: binding; conditions: Table 4
Experimental: as §5

[15] = biological target: T3, T315I ABL mutant kinase domain; experiment: as above; assay type: binding; conditions: Table 4
Experimental: as §5

[16] = Table 2, probe 3.1, 3 μM highest inhibitor concentration
[17] = Tables 2 and 3, probe 3.1, 3 μM highest inhibitor concentration
[18] = Table 5, probe 3.2, 3 μM highest inhibitor concentration, average of three experiments
[19] = Tables 5 and 6, probe 3.2, 3 μM highest inhibitor concentration, average of three experiments

## CCN(CC)CCNC(=O)c1c(C)[nH]c(/C=C2\C(=O)Nc3ccc(S(=O)(=O)Cc4ccccc4)cc32)c1C [2,4-dimethyl-5-[2-oxo-5-phenylmethanesulfonyl-1,2-dihydro-indol-(3Z)-ylidenemethyl]-1H-pyrrole-3-carboxylic acid (2-diethylamino-ethyl)-amide]
[1]
  Kd: 50 ± 30 nM
[2]
  Kd: 40 ± 20 nM
[3]
  Kd: 140 ± 70 nM

## Nc1ncnc2c1ncn2[C@@H]1O[C@H](COP(=O)(O)OP(=O)(O)OP(O)(O)=S)[C@@H](O)[C@H]1O [ATPγS, reference compound]
[4]; Table 1 validation, probe 3.1 at 0.15 μM, highest conc. ATPγS 250 μM, Imatinib 10 μM, average of three experiments
  Kd: 9500 ± 3400 nM
[5]; Table 1 validation, probe 3.1 at 0.12 μM, highest conc. ATPγS 250 μM, Imatinib 10 μM, average of three experiments
  Kd: 9000 ± 1900 nM
[6]; Table 1 validation, probe 3.1 at 0.42 μM, highest conc. ATPγS 250 μM, Imatinib 10 μM, average of three experiments
  Kd: 2000 ± 210 nM
[7]; Table 4 validation, probe 3.2 at 2 μM
  Kd: 6600 ± 1600 nM
[8]; Table 4 validation, probe 3.2 at 3.3 μM
  Kd: 4800 ± 1000 nM
[9]; Table 4 validation, probe 3.2 at 0.2 μM
  Kd: 2610 ± 900 nM

## CC(C)(NC(=O)c1cc2c(NC(=O)c3ccc(CN4CCCCC4)cc3)n[nH]c2s1)c1ccccc1 [Compound 1, 3-(4-Piperidin-1-ylmethyl-benzoylamino)-1H-thieno[2,3-c]pyrazole-5-carboxylic acid (1-methyl-1-phenyl-ethyl)-amide]
[10]
  inhibitory activity on ABL (pY412-ABL immunoblot): capable of inhibiting; also recorded: strong inhibitory activity
[11]
  inhibitory activity on ABL (pY412-ABL immunoblot): capable of inhibiting; also recorded: strong inhibitory activity
[12]
  effect on Src: no effect on Src
[12]; FIG. 2
  inhibition of ABL auto-phosphorylation of Y412: inhibit phosphorylation of Y412
  inhibition of phosphorylation of downstream mediators Stat-5 and Crkl: inhibit
[4]; [16]
  Kd: 240 ± 30 nM
[5]; [16]
  Kd: 250 ± 75 nM
[6]; [17]
  Kd: 21 ± 6 nM
[7]; [18]
  Kd: 278 ± 122 nM
[8]; [18]
  Kd: 310 ± 26 nM
[9]; [19]
  Kd: 37 ± 13 nM

## CC(C)(NC(=O)c1cc2c(NC(=O)c3ccc(CN4CCCCC4)cc3)n[nH]c2s1)c1ccccc1F [Compound 2, 3-(4-Piperidin-1-ylmethyl-benzoylamino)-1H-thieno[2,3-c]pyrazole-5-carboxylic acid [1-(2-fluoro-phenyl)-1-methyl-ethyl]-amide]
[4]; [16]
  Kd: 107 ± 21 nM
[5]; [16]
  Kd: 177 ± 32 nM
[6]; [17]
  Kd: 15 ± 4 nM
[7]; [18]
  Kd: 107 ± 21 nM
[8]; [18]
  Kd: 177 ± 32 nM
[9]; [19]
  Kd: 15 ± 4 nM

## CC(C)(NC(=O)c1cc2c(NC(=O)c3ccc(CN4CCOCC4)cc3)n[nH]c2s1)c1ccccc1F [Compound 3, 3-(4-Morpholin-4-ylmethyl-benzoylamino)-1H-thieno[2,3-c]pyrazole-5-carboxylic acid [1-(2-fluoro-phenyl)-1-methyl-ethyl]-amide]
[4]; [16]
  Kd: 330 ± 150 nM
[5]; [16]
  Kd: 370 ± 160 nM
[6]; [17]
  Kd: 47 ± 15 nM
[7]; [18]
  Kd: 350 ± 50 nM
[8]; [18]
  Kd: 553 ± 136 nM
[9]; [19]
  Kd: 70 ± 22 nM

## CN1CCC(Oc2ccc(C(=O)Nc3n[nH]c4sc(C(=O)NC(C)(C)c5ccccc5)cc34)cc2)CC1 [Compound 4, 3-[4-(1-Methyl-piperidin-4-yloxy)-benzoylamino]-1H-thieno[2,3-c]pyrazole-5-carboxylic acid (1-methyl-1-phenyl-ethyl)-amide]
[6]; [17]
  Kd: 6 ± 3 nM
[9]; [19]
  Kd: 2.7 ± 1 nM

## CN1CCN(c2ccc(C(=O)Nc3n[nH]c4sc(C(=O)NC(C)(C)c5ccccc5)cc34)cc2)CC1 [Compound 5, 3-[4-(4-Methyl-piperazin-1-yl)-benzoylamino]-1H-thieno[2,3-c]pyrazole-5-carboxylic acid (1-methyl-1-phenyl-ethyl)-amide]
[6]; [17]
  Kd: 4.1 ± 2 nM
[9]; [19]
  Kd: 5.3 ± 4 nM

## CC(C)(NC(=O)c1cc2c(NC(=O)c3ccc(CN4CCCCC4)cc3)n[nH]c2s1)c1ccc(F)cc1 [Compound 6, 3-(4-Piperidin-1-ylmethyl-benzoylamino)-1H-thieno[2,3-c]pyrazole-5-carboxylic acid [1-(4-fluoro-phenyl)-1-methyl-ethyl]-amide]
[6]; [17]
  Kd: 14 ± 5 nM
[9]; [19]
  Kd: 17.4 ± 6 nM

## CC(C)NCc1ccc(C(=O)Nc2n[nH]c3sc(C(=O)NC(C)(C)c4ccccc4F)cc23)cc1 [Compound 7]
[6]; [17]
  Kd: 20 ± 2 nM
[9]; [19]
  Kd: 16.8 ± 3 nM

## CN1CCN(c2ccc(C(=O)Nc3n[nH]c4sc(C(=O)NC(C)(C)c5ccccc5F)cc34)cc2)CC1 [Compound 8, 3-[4-(4-Methyl-piperazin-1-yl)-benzoylamino)-1H-thieno[2,3-c]pyrazole-5-carboxylic acid [1-(2-fluoro-phenyl)-1-methyl-ethyl]-amide]
[6]; [17]
  Kd: 12 ± 6 nM
[9]; [19]
  Kd: 8.3 ± 1.5 nM

## CC(C)(NC(=O)c1cc2c(NC(=O)c3ccc(CN4CCCCC4)cc3)n[nH]c2s1)c1ccccc1Cl [Compound 9, 3-(4-Piperidin-1-ylmethyl-benzoylamino)-1H-thieno[2,3-c]pyrazole-5-carboxylic acid [1-(2-chloro-phenyl)-1-methyl-ethyl]-amide]
[6]; [17]
  Kd: 14 ± 3.5 nM
[9]; [19]
  Kd: 18 ± 3.4 nM

## CN1CCN(Cc2ccc(C(=O)Nc3n[nH]c4sc(C(=O)NC(C)(C)c5ccccc5)cc34)cc2)CC1 [Compound 10, 3-[4-(4-Methyl-piperazin-1-ylmethyl)-benzoylamino]-1H-thieno[2,3-c]pyrazole-5-carboxylic acid (1-methyl-1-phenyl-ethyl)-amide]
[6]; [17]
  Kd: 8.4 ± 4 nM
[9]; [19]
  Kd: 9.3 ± 2.5 nM

## CC(C)NCc1ccc(C(=O)Nc2n[nH]c3sc(C(=O)NC(C)(C)c4ccccc4)cc23)cc1 [Compound 11, 3-[4-(Isopropylamino-methyl)benzoylamino)-1H-thieno[2,3-c]pyrazole-5-carboxylic acid (1-methyl-1-phenyl-ethyl)-amide]
[6]; [17]
  Kd: 12 ± 2.5 nM
[9]; [19]
  Kd: 11 ± 2.6 nM

## CC(C)(NC(=O)c1cc2c(NC(=O)c3ccc(N4CCOCC4)cc3)n[nH]c2s1)c1ccccc1 [Compound 12, 3-(4-Morpholin-4-yl-benzoylamino)-1H-thieno[2,3-c]pyrazole-5-carboxylic acid (1-methyl-1-phenyl-ethyl)-amide]
[6]; [17]
  Kd: 16 ± 3.7 nM
[9]; [19]
  Kd: 11.7 ± 3.8 nM

## CC(C)(NC(=O)c1cc2c(NC(=O)c3ccc(CN4CCCCC4)cc3)n[nH]c2s1)c1cccc(F)c1 [Compound 13, 3-(4-Piperidin-1-ylmethyl-benzoylamino)-1H-thieno[2,3-c]pyrazole-5-carboxylic acid [1-(3-fluoro-phenyl)-1-methyl-ethyl]-amide]
[6]; [17]
  Kd: 10 ± 4.6 nM
[9]; [19]
  Kd: 6.3 ± 3.3 nM

## CCN(CC)CCNC(=O)c1c(C)[nH]c(/C=C2\C(=O)Nc3ccc(S(=O)(=O)NC)cc32)c1-c1ccc(F)cc1F [N-[2-(diethylamino)ethyl]-4-(2,4-difluorophenyl)-2-methyl-5-((Z)-{5-[(methylamino)sulfonyl]-2-oxo-1,2-dihydro-3H-indol-3-ylidene}methyl)-1H-pyrrole-3-carboxamide]
[13]
  Kd: 200 ± 100 nM
[14]
  Kd: 330 ± 120 nM
[15]
  Kd: 20 ± 8 nM
